The text below walks through data of patent EP2832347B1, “Method for identifying patchouli odorant materials” (Takasago International Corporation, priority 2013, dated 2015).

For orientation: EC50 means the concentration giving half of the maximal effect. High values mean lower potency in that assay, low ones higher potency in that assay.

Where “and” joins values, the source holds several entries; their conditions need not be identical. Equal entries are not always repeated. Where two headings read alike, the source gives them in different places.

For data set [1], the target named is T1, OR11A1 (Homo sapiens, UniProt Q9GZK7).
T1 construct: expressed in transfected cells; host or cells: HEKOlf (HEK293 stably expressing human Galpha-olf and bovine CNGA2)
T1 sequence (Q9GZK7 1-315): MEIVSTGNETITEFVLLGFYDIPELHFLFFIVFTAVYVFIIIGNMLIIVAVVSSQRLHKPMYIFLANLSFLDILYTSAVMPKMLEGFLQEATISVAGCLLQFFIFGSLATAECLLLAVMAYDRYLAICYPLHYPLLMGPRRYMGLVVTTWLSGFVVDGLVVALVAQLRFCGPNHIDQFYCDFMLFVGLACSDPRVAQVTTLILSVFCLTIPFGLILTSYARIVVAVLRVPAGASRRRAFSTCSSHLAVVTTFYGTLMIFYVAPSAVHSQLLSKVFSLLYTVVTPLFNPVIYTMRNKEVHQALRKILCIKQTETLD
The following applies: Adipietro et al., PLoS Genet. 2012; cited from earlier work.

Data set [2] deals with T1, OR11A1. Description: CRE-luciferase reporter assay in HEKOlf cells transiently transfected with OR11A1. The class given is cell-based. Conditions: for EC50: Example 4, Table 5, 0.03-100 µM tested; for Potency and efficacy on OR11A1 (comparison between odorants): 0.1 to 100 µM (Figure 6). The method, then: (§1) The experiments were performed using a HEK293 cell line (deposited at the ATCC under accession n° CRL-1573) stably expressing the Gαolf G-protein and the cyclic nucleotide gated ion channel A2 subunit (CNGA2) (herein called HEKOlf). As described by Shirokova et al., 2005, the human Gαolf cDNA was cloned into the mammalian expression vector pPuro and cDNA for the bovine cyclic nucleotide gated ion channel A2 (CNGA2) subunit was cloned into the mammalian expression vector pcDNA3. Both constructs were transfected using Lipofectamine2000 (Invitrogen) following the manufacturer's instructions. Cellular clones stably expressing Gαolf and CNGA2 were obtained by antibiotic selection with 0.5µg/ml Puromycin and 200µg/ml Geneticin.
All odorants were stored in the dark at 4°C upon delivery. They were prepared at 100mM stock solutions using DMSO as a solvent and stored at -20°C. On the day of the experiment the different stock solutions were directly diluted in the assay buffer (Tyrode's buffer) having the following composition: 5mM KCI, 130mM NaCl, 2mM CaCl2, 5mM NaHCO3, 1mM MgCl2, 20mM HEPES, pH7.4.
(§2) All transient transfections were performed with Lipofectamine 2000 (Invitrogen) according to the manufacturer's protocol. 10µl Lipofectamine 2000 were diluted in 500 µl DMEM and incubated for 5 minutes at room temperature. At the same time, 3µg of plasmid DNA were diluted in 500µl DMEM and added to the Lipofectamine 2000 mix to obtain a final volume of 1000µl. After incubation for a further 30 minutes at room temperature, the DNA-Lipofectamine complex was added to 1000µl of a cell suspension containing 1.600.000 cells/ml. Subsequently, 25µl per well of the complete mixture were seeded in black 384 well polystyrene assay plates. 25µl DMEM containing 20% FBS were added to each well 3 hours post-transfection.
(§3) The cDNAs for all olfactory receptors and an empty control vector were co-transfected with pGL4.29 (Promega). The pGL4.29 vector contains a cyclic adenosine monophosphate (cAMP) response element (CRE) that drives the transcription of the luciferase reporter gene luc2P (Photinus pyralis). luc2P is a synthetically-derived luciferase sequence with humanized codon optimization that is designed for high expression and reduced anomalous transcription.
In this assay, the interaction of an odorant with its cognate olfactory receptor leads to the activation of the human Gαolf G-protein. Gαolf is a stimulatory G-protein (Gαs) and activates adenylate cyclase, which converts adenosine triphosphate (ATP) into cAMP. Therefore, the activity of the transcribed luciferase can be used as an indication of olfactory receptor activation. 24 hours post-transfection the medium was removed from the transfected cells and 30 µl Tyrode's buffer containing the diluted odorants were added and incubated for 6 hours at 37°C. The cells were then transferred into an automated fluorometric imaging plate reader (FLIPR^TETRA, Molecular Devices). Subsequently, 25µl of a mixture composed of Triton X-100 and luciferin (1:1) were added. The addition of this mixture led to cell lyses and allowed interaction of the luciferase with its substrate luciferin resulting in a detectable emission of light.
The data obtained from different well replicates were analyzed with Excel, ScreenWorks, and SigmaPlot 10. The responses of each receptor to the odorants were divided by the mean responses of the receptor towards Tyrode's buffer (fold of change FOC1). The specificity of FOC1 was checked by comparing with a second FOC (FOC2) obtained by stimulating a control sample, consisting in an empty expression vector, with the same odorants and Tyrode's buffer. The mean and standard deviation of the resulting fold of change values were calculated and plotted in vertical bar charts or concentration-response curves fitted by the SigmaPlot 10 software.
(In general: A reporter such as luciferase makes a cellular process visible.)

Data set [3] deals with T2, OR11L1 (Homo sapiens, UniProt Q8NGX0).
T2 construct: expressed in transfected cells; host or cells: HEKOlf (HEK293 stably expressing human Galpha-olf and bovine CNGA2)
T2 sequence (Q8NGX0 1-322): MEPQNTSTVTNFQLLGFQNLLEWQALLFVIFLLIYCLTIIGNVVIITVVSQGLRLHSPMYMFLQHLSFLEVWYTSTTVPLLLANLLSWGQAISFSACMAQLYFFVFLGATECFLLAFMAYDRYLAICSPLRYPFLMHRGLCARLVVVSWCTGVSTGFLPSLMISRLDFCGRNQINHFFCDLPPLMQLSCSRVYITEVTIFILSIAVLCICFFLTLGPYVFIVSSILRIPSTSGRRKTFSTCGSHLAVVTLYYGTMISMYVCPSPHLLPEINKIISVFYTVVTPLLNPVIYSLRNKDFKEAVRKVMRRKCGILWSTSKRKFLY
The experiment in a line: CRE-luciferase reporter assay in HEKOlf cells transiently transfected with OR11L1. In kind it is cell-based. Conditions: Example 3; 10/30/100 µM. The method, then: as §1
All odorants were stored in the dark at 4°C upon delivery. […]
In this assay, the interaction of an odorant with its cognate olfactory receptor leads to the activation of the human Gαolf G-protein. […] The cells were then transferred into an automated fluorometric imaging plate reader (FLIPR^TETRA, Molecular Devices). […]
(§4) The data obtained from different well replicates were analyzed with Excel, ScreenWorks, and SigmaPlot 10. […] The mean and standard deviation of the resulting fold of change values were calculated and plotted in vertical bar charts or concentration-response curves fitted by the SigmaPlot 10 software. […]

Data set [4] deals with seven other OR11A1-related olfactory receptors. The experiment in a line: CRE-luciferase reporter assay on OR11A1 related receptors. In kind it is cell-based, human. Conditions: 10/30/100 µM. The method, then:
as §1, §2, §3
In this assay, the interaction of an odorant with its cognate olfactory receptor leads to the activation of the human Gαolf G-protein. Gαolf is a stimulatory G-protein (Gαs) and activates adenylate cyclase, which converts adenosine triphosphate (ATP) into cAMP. Therefore, the activity of the transcribed luciferase can be used as an indication of olfactory receptor activation. […] The cells were then transferred into an automated fluorometric imaging plate reader (FLIPR^TETRA, Molecular Devices). […]
as §4

Data set [5] can be described thus: Long-lasting analysis on scent strip (GC-MS with internal standard). Conditions: for POG (GC-MS signal), sample 1-3 / Ratio POG/IS, sample 1-3: individual scent strips, listed as POG. The class given is physicochemical. Here is the method:
In one embodiment, the long-lasting analysis is carried out as follows: 50 µl of a 1 % solution of the identified candidate to be tested in alcohol, preferably ethanol, are applied on a scent strip, preferably a cellulosic scent strip, to be dosed. The strip is allowed to dry under ambient laboratory conditions, with normal room air movement, in particular no fan, heating or any mean or device to accelerate evaporation. After different times, each strip or at least the part of the scent strip including the area where the solution of the identified candidate to be tested was applied is extracted using 3 ml of alcohol, preferably ethanol, containing an internal standard, such as methyl decanoate. The extracts are then analyzed by gas chromatography and the result is normalized for the principal molecular ion of the identified candidate using the value for the internal standard.
50 µl of a 1 % solution of patchouli alcohol in ethanol was added by pipette to the tip to a series of different scent strips (SARL H. GRANGER-VEYRON, Privas, France). The strips were allowed to dry under ambient laboratory conditions.
After different times (t0, t0+1hour, t0+2hours, t0+4hours, t0+8hours) the tip of a strip where the 50 µl of the solution of the tested material had been applied was cut and put in a 30 ml bottle and extracted using 3 ml of ethanol, containing 50 µl of methyl decanoate as internal standard (10000 ppm solution in cyclohexane), added to each bottle. Care was taken to ensure the entire area around the point of application was included in the area that was cut and extracted. The content of the bottles was mixed for 30 min on a roller bed, and 2 ml vials were then filled with each sample.
Samples were triplicated, i.e. 3 scent strip tips were analysed for each time point.
In a first series of experiments, samples taken at t0, t0+1hour and t0+2hours were analyzed by GC-MS on a […] gas chromatography column (column BC-WAX (50m * 0.25mm * 0.15µm) which is a GC Sciences column supplied by Interchim, Montluçon, France).
In a second series of experiments, samples taken at t0, t0+4hours and t0+8hours were analyzed by GC-MS on a non-polar gas chromatography column (HP-5MS UI (30m * 0.25mm * 0.25µm) which is an Agilent column supplied by Chromoptic, Courtaboeuf, France).
In Tables 6-11, PA stands for patchouli alcohol and IS stands for the internal standard, i.e. methyl decanoate. When plotting the residual concentration of patchouli on the scent strip as a function of time, the mean ratio at t0 was normalized to 100 and then t0+1h, t0+2h, t0+4h and t0+8h were calculated; t0 being defined as 2 minutes after dosing the 50 µl of the solution of the tested material, which was applied towards the tip of the scent strip.
A "long-lasting" analysis of pogostone was performed as described in Example 5 with samples taken at t0, t0+1hour and t0+2hours.
In Tables 12-14 herebelow, POG stands for pogostone and IS stands for the internal standard, i.e. methyl decanoate. The mean ratio at t0 was normalized as described in Example 5.

[6] abbreviates: Example 4, 3, 10 and 30 µM (Figure 5).

On to `CCC1(O)C2(C)CCC(C2)C1(C)C` (centres unmarked) [2-ethylfenchol], for which, in data set [1], the “activation of OR11A1” value was “activation of OR11A1”.
Take `CC1(C)C2CCC3(C)C4C(CCC13O)C24` (centres unmarked) [Patcho 315, 6a,7,7-trimethyldecahydro-1,4-methanocyclopropa[de]naphtalen-1-ol]: the “activation of OR11A1” value is given as “strongly activated” in data set [2] (Example 3, 10/30/100 µM) and “strongly activated” in data set [2] (setting [6]). The compound also came in with an EC50 in data set [2] of 2.9 ± 0.9 µM. Further, the “Potency and efficacy on OR11A1 (comparison between odorants)” value (from here on “Potency and efficacy on OR11A1”) in data set [2] (Example 4) was “highest”. In addition, the “response in cells transfected with OR11L1” value in data set [3] was “unable to elicit a detectable response”. Further, in data set [4] (Example 3, figure 4), the fold of change result is given as “around 1”. In data set [4] (Example 3), the “response of seven other OR11A1-related olfactory receptors” value is “none of the seven other OR11A1-related olfactory receptors responded”.
For the compound `Cc1cc(O)c(C(=O)CCC(C)C)c(=O)o1` [Pogostone, pogostone], it took 14.8 ± 3.3 µM to reach a half-maximal effect in data set [2] (EC50). Moreover, in data set [2] (Example 4), the “Potency and efficacy on OR11A1” value was “comparable”. The “activation of OR11A1” value in data set [2] (setting [6]) was “able to elicit activation”. The retained initial concentration entry in data set [5] (after 1 hour on scent strip) is “at least 10%”. Also, in data set [5] (t0), the “POG (GC-MS signal), mean value” is recorded as 1.11E+06; the “Ratio POG/IS, mean value” turned out to be 2.61E-01; the “POG (GC-MS signal), sample 1-3” value was 1.17E+06 and 1.06E+06 and 1.09E+06; the “Ratio POG/IS, sample 1-3” value was 2.92E-01 and 2.45E-01 and 2.48E-01. In data set [5] (t0+1h), the “POG (GC-MS signal), mean value” amounted to 9.55E+05; the “Ratio POG/IS, mean value” stood at 2.08E-01; the “POG (GC-MS signal), sample 1-3” value was 1.05E+06 and 9.11E+05 and 9.09E+05; the “Ratio POG/IS, sample 1-3” value was 2.22E-01 and 1.98E-01 and 2.03E-01. In data set [5] (t0+2h), the “POG (GC-MS signal), mean value” is recorded as 8.34E+05; the “Ratio POG/IS, mean value” came out at 1.82E-01; the “POG (GC-MS signal), sample 1-3” value was 8.11E+05 and 8.75E+05 and 8.15E+05; the “Ratio POG/IS, sample 1-3” value was 1.75E-01 and 1.87E-01 and 1.85E-01.
For `CC1(C)CCC[C@]2(O)C(C)(C)[C@H]3CC[C@@]12C3` [Terranol, terranol], the “activation of OR11A1” value in data set [2] (Example 4, up to 100µM) is recorded as “did not activate”.
Still for that read-out and setting: for `CC1CCC2C(C)(C)C3CC12CC1OC13C` (centres unmarked) [andrane] the value was “did not activate”.
In data set [2], norpatchouli alcohol came in with an EC50 of 10.7 ± 2.6 µM. Moreover, the “Potency and efficacy on OR11A1” value in data set [2] (Example 4) was “comparable”. Moreover, the “activation of OR11A1” value in data set [2] (setting [6]) is “able to elicit activation”.
